# Reference: ChEMBL document CHEMBL5042489, “Inhibitors of the Hippo Pathway Kinases STK3/MST2 and STK4/MST1 Have Utility for the Treatment of Acute Myeloid Leukemia” (J Med Chem, 2022)
# Active and inactive are the calls of the source. The rule behind the calls is not given here.
# T1: Serine/threonine-protein kinase 4 (Homo sapiens, UniProt Q13043)
# T1 sequence (Q13043 whole entry): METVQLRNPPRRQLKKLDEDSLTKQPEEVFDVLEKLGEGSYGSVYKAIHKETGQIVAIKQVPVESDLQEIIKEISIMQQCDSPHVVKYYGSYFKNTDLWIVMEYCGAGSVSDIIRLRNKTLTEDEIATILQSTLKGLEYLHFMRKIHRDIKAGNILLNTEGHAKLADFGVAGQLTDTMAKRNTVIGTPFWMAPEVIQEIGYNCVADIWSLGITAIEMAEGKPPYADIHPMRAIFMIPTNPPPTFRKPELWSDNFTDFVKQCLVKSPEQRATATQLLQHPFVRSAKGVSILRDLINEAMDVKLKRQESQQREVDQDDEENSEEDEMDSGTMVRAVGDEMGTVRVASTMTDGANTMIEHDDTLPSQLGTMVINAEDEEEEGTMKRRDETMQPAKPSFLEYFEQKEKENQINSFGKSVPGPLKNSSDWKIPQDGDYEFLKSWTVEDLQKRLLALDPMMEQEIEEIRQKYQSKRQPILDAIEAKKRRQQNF
# T2: Serine/threonine-protein kinase 3 (Homo sapiens, UniProt Q13188)
# T2 sequence (Q13188 whole entry): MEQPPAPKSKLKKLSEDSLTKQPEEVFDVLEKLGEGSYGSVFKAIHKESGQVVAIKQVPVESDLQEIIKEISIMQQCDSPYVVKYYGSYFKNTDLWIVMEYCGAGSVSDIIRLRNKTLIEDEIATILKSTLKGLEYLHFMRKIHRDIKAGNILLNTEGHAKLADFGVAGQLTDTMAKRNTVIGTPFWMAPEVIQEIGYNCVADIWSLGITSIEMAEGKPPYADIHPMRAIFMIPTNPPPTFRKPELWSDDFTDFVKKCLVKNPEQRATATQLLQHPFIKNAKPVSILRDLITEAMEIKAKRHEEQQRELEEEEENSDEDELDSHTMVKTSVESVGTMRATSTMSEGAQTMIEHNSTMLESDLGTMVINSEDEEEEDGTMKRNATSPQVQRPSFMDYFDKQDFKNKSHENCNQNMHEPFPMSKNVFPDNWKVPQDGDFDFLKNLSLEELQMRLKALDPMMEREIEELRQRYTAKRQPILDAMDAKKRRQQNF
# T3: Serine/threonine-protein kinase 4 (Homo sapiens) (UniProt Q13043)
# T3 sequence (whole entry): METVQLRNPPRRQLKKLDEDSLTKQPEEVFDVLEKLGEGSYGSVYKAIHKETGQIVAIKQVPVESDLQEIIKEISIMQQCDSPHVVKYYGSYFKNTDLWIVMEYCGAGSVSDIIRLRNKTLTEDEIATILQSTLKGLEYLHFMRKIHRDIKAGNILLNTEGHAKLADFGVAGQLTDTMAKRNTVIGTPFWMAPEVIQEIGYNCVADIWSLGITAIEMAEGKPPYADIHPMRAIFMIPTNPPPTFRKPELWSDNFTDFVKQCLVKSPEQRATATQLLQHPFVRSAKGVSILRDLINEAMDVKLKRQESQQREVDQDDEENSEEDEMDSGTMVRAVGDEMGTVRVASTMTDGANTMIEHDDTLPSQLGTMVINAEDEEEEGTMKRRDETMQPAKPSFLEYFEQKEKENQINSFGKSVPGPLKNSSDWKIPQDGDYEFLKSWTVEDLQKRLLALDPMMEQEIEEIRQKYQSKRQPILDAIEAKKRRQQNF
# T4: Serine/threonine-protein kinase 3 (Homo sapiens) (UniProt Q13188)
# T4 sequence (whole entry): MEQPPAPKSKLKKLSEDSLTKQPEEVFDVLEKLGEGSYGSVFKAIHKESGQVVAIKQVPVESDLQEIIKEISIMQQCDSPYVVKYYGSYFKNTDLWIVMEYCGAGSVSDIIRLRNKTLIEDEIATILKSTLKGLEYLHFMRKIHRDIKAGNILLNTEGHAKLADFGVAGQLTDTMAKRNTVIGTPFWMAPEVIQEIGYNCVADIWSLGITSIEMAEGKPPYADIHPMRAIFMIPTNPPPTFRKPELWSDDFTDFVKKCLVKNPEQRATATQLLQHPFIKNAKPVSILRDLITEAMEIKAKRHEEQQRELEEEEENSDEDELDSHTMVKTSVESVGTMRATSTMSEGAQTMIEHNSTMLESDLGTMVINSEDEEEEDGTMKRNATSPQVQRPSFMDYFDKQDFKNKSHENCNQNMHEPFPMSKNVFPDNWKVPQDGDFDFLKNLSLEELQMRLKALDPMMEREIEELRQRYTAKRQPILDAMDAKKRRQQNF
# B1: Serine/threonine-protein kinase 4 (Homo sapiens), Q13043 (protein)
# chain: METVQLRNPPRRQLKKLDEDSLTKQPEEVFDVLEKLGEGSYGSVYKAIHKETGQIVAIKQVPVESDLQEIIKEISIMQQCDSPHVVKYYGSYFKNTDLWIVMEYCGAGSVSDIIRLRNKTLTEDEIATILQSTLKGLEYLHFMRKIHRDIKAGNILLNTEGHAKLADFGVAGQLTDTMAKRNTVIGTPFWMAPEVIQEIGYNCVADIWSLGITAIEMAEGKPPYADIHPMRAIFMIPTNPPPTFRKPELWSDNFTDFVKQCLVKSPEQRATATQLLQHPFVRSAKGVSILRDLINEAMDVKLKRQESQQREVDQDDEENSEEDEMDSGTMVRAVGDEMGTVRVASTMTDGANTMIEHDDTLPSQLGTMVINAEDEEEEGTMKRRDETMQPAKPSFLEYFEQKEKENQINSFGKSVPGPLKNSSDWKIPQDGDYEFLKSWTVEDLQKRLLALDPMMEQEIEEIRQKYQSKRQPILDAIEAKKRRQQNF
# Columns and labels:
# [1] = target: T1, Serine/threonine-protein kinase 4
# [2] = target: T2, Serine/threonine-protein kinase 3
# Description: Displacement of K5 tracer from full length C-terminal NanoLuc fused human STK3 expressed in HEK293T cells incubated for 2 hrs by NanoBRET assay
# [3] = target: T2, Serine/threonine-protein kinase 3; remark: listed apart in the source
# [4] = Drug concentration in C57BL/6 mouse plasma at 20 mg/kg, ip measured after 30 mins by LC-MS/MS analysis; assay type: ADME, organism-based
# [5] = target: Leucine-rich repeat serine/threonine-protein kinase 2 (Homo sapiens, UniProt Q5S007); test: Displacement of K5 tracer from full length C-terminal NanoLuc fused human LRRK2 expressed in HEK293T cells incubated for 2 hrs by NanoBRET assay; assay type: cell-based
# [6] = target: T1, Serine/threonine-protein kinase 4; remark: listed apart in the source
# Description: Displacement of K5 tracer from full length C-terminal NanoLuc fused human STK4 expressed in HEK293T cells incubated for 2 hrs by NanoBRET assay
# [7] = target: T3, Serine/threonine-protein kinase 4 (Homo sapiens); details: dose 20.0 µM
# Description: Inhibition of recombinant N-terminal His6-tagged human STK4 (43 to 431 residues) expressed in Escherichia coli assessed as melting temperature at 20 uM by thermal shift assay (Rvb = 55 degreeC)
# [8] = target: T1, Serine/threonine-protein kinase 4; test: Binding affinity to recombinant N-terminal His6-tagged human STK4 (43 to 431 residues) expressed in Escherichia coli assessed as dissociation constant by isothermal titration calorimetry
# [9] = target: T4, Serine/threonine-protein kinase 3 (Homo sapiens); test: Inhibition of STK3 in HEK293 cells assessed as increase in YAP/TAZ-TEAD activity at 10 uM incubated for 48 hrs by Dual-Glo luciferase assay; assay type: cell-based
# [10] = target: T2, Serine/threonine-protein kinase 3; test: Binding affinity to recombinant N-terminal His6-tagged human STK3 (18 to 311 residues) expressed in Escherichia coli assessed as dissociation constant by isothermal titration calorimetry
# [11] = target: T4, Serine/threonine-protein kinase 3 (Homo sapiens); test: Inhibition of recombinant N-terminal His6-tagged human STK3 (18 to 311 residues) expressed in Escherichia coli assessed as melting temperature at 20 uM by thermal shift assay
# [12] = target: T1, Serine/threonine-protein kinase 4; remark: listed apart in the source
# [13] = substrate: Clc1cccc(-c2c[nH]c3ncnc(N4CCOCC4)c23)c1; details: Homo sapiens; time 165.0 min
# Sequence of Leucine-rich repeat serine/threonine-protein kinase 2 (Q5S007 whole entry, the tested form may be a part): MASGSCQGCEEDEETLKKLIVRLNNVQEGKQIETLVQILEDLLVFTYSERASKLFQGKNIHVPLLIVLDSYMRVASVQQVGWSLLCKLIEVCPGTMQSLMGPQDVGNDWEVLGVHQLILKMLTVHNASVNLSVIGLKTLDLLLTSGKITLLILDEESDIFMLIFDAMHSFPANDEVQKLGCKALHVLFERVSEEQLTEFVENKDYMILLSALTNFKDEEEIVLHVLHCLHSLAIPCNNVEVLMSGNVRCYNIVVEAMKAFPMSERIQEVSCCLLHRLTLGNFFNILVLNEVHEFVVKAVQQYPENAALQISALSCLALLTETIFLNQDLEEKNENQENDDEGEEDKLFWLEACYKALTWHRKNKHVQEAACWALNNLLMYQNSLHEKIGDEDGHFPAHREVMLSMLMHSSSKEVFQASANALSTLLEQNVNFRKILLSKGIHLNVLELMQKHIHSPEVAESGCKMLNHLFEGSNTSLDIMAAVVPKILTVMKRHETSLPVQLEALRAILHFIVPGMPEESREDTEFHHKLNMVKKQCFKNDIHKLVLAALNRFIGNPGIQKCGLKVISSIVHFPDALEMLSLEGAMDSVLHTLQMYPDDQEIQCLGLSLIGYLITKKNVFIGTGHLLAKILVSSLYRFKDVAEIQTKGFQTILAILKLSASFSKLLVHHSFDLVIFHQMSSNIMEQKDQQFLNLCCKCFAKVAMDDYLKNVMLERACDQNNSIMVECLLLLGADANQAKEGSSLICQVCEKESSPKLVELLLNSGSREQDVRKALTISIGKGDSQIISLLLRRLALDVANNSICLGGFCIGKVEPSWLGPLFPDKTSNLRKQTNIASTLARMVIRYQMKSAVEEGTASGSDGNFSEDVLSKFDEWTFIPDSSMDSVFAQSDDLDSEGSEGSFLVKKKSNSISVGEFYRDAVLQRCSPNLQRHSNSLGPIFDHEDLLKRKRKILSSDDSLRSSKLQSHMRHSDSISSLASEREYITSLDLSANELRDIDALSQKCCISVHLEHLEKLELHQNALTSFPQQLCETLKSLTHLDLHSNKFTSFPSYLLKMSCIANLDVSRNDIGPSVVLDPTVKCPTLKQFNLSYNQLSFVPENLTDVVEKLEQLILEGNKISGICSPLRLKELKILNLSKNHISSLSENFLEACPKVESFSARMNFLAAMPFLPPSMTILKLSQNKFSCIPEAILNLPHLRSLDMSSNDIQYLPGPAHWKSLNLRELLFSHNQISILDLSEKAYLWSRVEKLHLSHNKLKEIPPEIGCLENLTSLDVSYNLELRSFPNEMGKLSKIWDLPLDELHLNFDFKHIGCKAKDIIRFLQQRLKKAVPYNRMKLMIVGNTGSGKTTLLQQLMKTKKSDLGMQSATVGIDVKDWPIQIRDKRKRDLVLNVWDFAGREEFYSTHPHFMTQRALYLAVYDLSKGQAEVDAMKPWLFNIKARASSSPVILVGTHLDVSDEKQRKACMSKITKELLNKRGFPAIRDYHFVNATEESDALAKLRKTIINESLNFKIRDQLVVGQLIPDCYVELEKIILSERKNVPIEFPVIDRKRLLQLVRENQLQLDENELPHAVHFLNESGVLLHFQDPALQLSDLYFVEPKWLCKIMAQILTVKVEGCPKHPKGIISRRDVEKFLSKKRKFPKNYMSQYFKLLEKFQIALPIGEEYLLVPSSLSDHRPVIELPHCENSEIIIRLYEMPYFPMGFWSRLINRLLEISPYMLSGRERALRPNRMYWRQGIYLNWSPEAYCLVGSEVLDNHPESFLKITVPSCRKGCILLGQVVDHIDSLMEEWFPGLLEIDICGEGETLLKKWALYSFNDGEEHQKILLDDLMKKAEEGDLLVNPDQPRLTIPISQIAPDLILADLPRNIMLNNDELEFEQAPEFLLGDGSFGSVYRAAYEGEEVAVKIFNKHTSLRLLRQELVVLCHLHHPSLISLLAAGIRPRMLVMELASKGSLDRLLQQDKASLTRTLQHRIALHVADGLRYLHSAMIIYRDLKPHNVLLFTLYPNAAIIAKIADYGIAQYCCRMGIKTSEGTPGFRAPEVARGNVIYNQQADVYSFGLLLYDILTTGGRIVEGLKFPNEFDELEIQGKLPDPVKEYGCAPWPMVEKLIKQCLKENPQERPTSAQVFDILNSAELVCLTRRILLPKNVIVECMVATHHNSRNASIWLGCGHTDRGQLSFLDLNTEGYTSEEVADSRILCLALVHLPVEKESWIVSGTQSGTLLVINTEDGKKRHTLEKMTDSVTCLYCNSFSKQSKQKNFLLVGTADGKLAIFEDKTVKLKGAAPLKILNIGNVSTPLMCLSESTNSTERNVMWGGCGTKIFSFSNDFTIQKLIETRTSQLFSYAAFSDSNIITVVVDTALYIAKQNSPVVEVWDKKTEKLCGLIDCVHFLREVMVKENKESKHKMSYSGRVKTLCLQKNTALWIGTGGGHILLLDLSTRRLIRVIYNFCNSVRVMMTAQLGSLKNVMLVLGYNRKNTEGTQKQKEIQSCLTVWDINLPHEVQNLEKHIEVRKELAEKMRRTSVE
Molecule,IC50 [3],concentration at 0.5 h [4],IC50 [5],other results
CN(CCO)c1ncnc2[nH]cc(-c3cccc(Cl)c3)c12,117 nM,> 1400 nM,1520 nM,IC50 [1]: 79 nM; IC50 [2]: 631 nM; IC50 [6]: 406 nM
Clc1cccc(-c2c[nH]c3nccc(N4CCOCC4)c23)c1,119 nM,> 1400 nM,121 nM,IC50 [1]: 66 nM; Tm [7]: 63.6 °C; IC50 [2]: 373 nM; Kd [8]: 158 nM; inhibition [9]: Active; IC50 [6]: 192 nM; Kd [10]: 48 nM
c1ccc(-c2c[nH]c3ncnc(N4CCOCC4)c23)cc1,197 nM,,,IC50 [1]: 183 nM
CNC1CCN(c2ncnc3[nH]cc(-c4cccc(Cl)c4)c23)CC1,,> 1400 nM,3540 nM,
CC1(O)CCN(c2ncnc3[nH]cc(-c4cccc(Cl)c4)c23)CC1,189 nM,,,
Cc1cccc(-c2c[nH]c3ncnc(N4CCOCC4)c23)c1,121 nM,> 1400 nM,127 nM,IC50 [2]: 434 nM
Cc1ccc(-c2c[nH]c3ncnc(N4CCOCC4)c23)cc1,2020 nM,,,inhibition [9]: inactive
CN(C)c1ncnc2[nH]cc(-c3cccc(Cl)c3)c12,349 nM,,,
c1coc(-c2c[nH]c3ncnc(N4CCOCC4)c23)c1,487 nM,,,
CC(CO)CN(C)c1ncnc2[nH]cc(-c3cccc(Cl)c3)c12 (stereo not given),58 nM,> 1400 nM,7140 nM,IC50 [1]: 38 nM; IC50 [2]: 289 nM; IC50 [6]: 444 nM
COc1cccc(-c2c[nH]c3ncnc(N4CCOCC4)c23)c1,766 nM,,,
OCCCNc1ncnc2[nH]cc(-c3cccc(Cl)c3)c12,173 nM,> 1400 nM,2490 nM,IC50 [2]: 668 nM
Clc1cccc(-c2n[nH]c3ncnc(N4CCOCC4)c23)c1,4800 nM,,,IC50 [1]: 1610 nM
Clc1cccc(-c2c[nH]c3ncnc(NCC4CC4)c23)c1,213 nM,,,
CN1C(=O)c2sccc2N(C)c2nc(Nc3ccc(S(N)(=O)=O)cc3)ncc21,,,,IC50 [6]: 1040 nM
CCN(CCO)c1ncnc2[nH]cc(-c3cccc(Cl)c3)c12,226 nM,,,

Molecule,IC50 [3],concentration at 0.5 h [4],IC50 [5],other results
Fc1ccccc1-c1c[nH]c2ncnc(N3CCOCC3)c12,558 nM,,,
Cc1ccccc1-c1c[nH]c2ncnc(N3CCOCC3)c12,6900 nM,,,IC50 [1]: 2400 nM; inhibition [9]: inactive
c1nc(N2CCOCC2)c2c(-c3ccoc3)c[nH]c2n1,986 nM,,,
Fc1cccc(-c2c[nH]c3ncnc(N4CCOCC4)c23)c1,191 nM,> 1400 nM,246 nM,ΔTm [11]: > 5.2 °C; IC50 [2]: 373 nM; inhibition [9]: Active
Clc1cccc(-c2c[nH]c3ccnc(N4CCOCC4)c23)c1,> 10000 nM,,,
N#Cc1cccc(-c2c[nH]c3ncnc(N4CCOCC4)c23)c1,,,84 nM,IC50 [2]: 197 nM
Clc1cccc(-c2c[nH]c3ncnc(N4CCOCC4)c23)c1,,> 1400 nM,264 nM,IC50 [1]: 35 nM; Tm [7]: 63.8 °C; Kd [8]: 147 nM; IC50 [6]: 320 nM; Ki [12]: 50 nM
Fc1ccc(-c2c[nH]c3ncnc(N4CCOCC4)c23)cc1,766 nM,> 1400 nM,,
c1csc(-c2c[nH]c3ncnc(N4CCOCC4)c23)c1,267 nM,,,
CC1(N)CCN(c2ncnc3[nH]cc(-c4cccc(Cl)c4)c23)CC1,278 nM,> 1400 nM,,
Clc1cccc(-c2csc3ncnc(N4CCOCC4)c23)c1,> 10000 nM,,,
COc1ccccc1-c1c[nH]c2ncnc(N3CCOCC3)c12,230 nM,,,
Clc1cccc(-c2c[nH]c3ncnc(N4CCCCC4)c23)c1,167 nM,> 1400 nM,1140 nM,ΔTm [11]: > 5.2 °C; IC50 [2]: 1100 nM
Clc1cccc(-c2coc3ncnc(N4CCOCC4)c23)c1,> 10000 nM,,,
B1,,,,Km [13]: 140 µM
